This is an account of results in patent US11191754B2, “Inhibitors of nucleotidyl transferases and uses in herpes and hepatitis viral infections therefor” (Saint Louis University, priority 2015, dated 2021).

Where two headings read alike, the source gives them in different places.

One data set is described as follows: in vitro. It is filed as cell-based. As to conditions: African green monkey. As for the experimental part: Qualitative assessments of cytotoxicity were done visually by inspecting the cells in the primary screening assays. For the quantitative assays, cells were plated in 96-well plates at 1.0×10^4 per well. The next day the compounds were added at 0.78 to 100 μM in a final concentration of 1% (v/v) DMSO, and the cells were incubated for 24 hours under conditions identical to those employed for the viral replication inhibition assays. Mitochondrial toxicity was measured by incubating the cells with 0.25 mg/mL thiazolyl blue tetrazolium bromide (MTT, SigmaAldrich Chemical Co.), the cultures were incubated for 60 min, metabolites were solubilized in acidic isopropanol, and absorbance was read at 570 nm. CC50 values were calculated by non-linear curve fitting using GraphPad Prism.
A quantitative toxicity measurement was conducted. Toxicity was assessed by measuring release of intracellular proteases into the culture medium due to cellular lysis. Cells were plated in 96-well plates at 1.0×10^4 per well. The next day compound was added in concentrations ranging from 0.78 to 100 μM in a final concentration of 1% (v/v) DMSO. The cells were incubated for 24 hours under conditions identical to those employed for the viral replication inhibition assays, and then […] according to the manufacturer's instructions. […]

Data set [1] can be described thus: Mouse liver microsome assay. It is filed as in vitro ADME. As to conditions: for CLint scaled at 1 μM: mouse, liver microsomes. The procedure:
Microsomal incubations are run at a final P450 concentration of 0.25 μM. […] The mixture is prewarmed for 5 min at 37° C. To initiate the reaction a 12 mM stock of NAPDH (1.2 mM, final concentration) is added to the warmed microsomal mixture and aliquots are removed at 0, 5, 10, 20 and 30 min. […] Samples are vortexed and spun down at 3200 rpm for 5 min. The supernant is transferred to 96-deep well plates and run on LC/MS/MS.
A general note: Microsomes from liver hold many membrane-bound enzymes, among them those of drug oxidation.

The term CC50 denotes the concentration giving 50% cytotoxicity. In turn, `Cc1cc(CC(C)CC(C)(C)C)n(O)c(=O)c1` (stereo not drawn) [#191, Piroctone olamine] had a CC50 at 24 h in “in vitro” of more than 100 µM. The ER in data set [1] (extraction ratio, mouse liver microsomes) is on record as 0.09. In addition, the Non-P450 turn-over entry in data set [1] (mouse liver microsomes) is given as “No”. Moreover, in data set [1] (mouse liver microsomes, 1 μM compound, read-out: t ½), the half-life at 1 μM was more than 2 h. Also, the CLint scaled at 1 μM in data set [1] (1 μM compound, read-out: CL ‘hep) came to 8 mL/min/kg; in data set [1] (1 μM compound, read-out: CL’int), 9 mL/min/kg.
